Experimental data: PubChem BioAssay (NCI)
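Growth conditions: 96-well plates. Treatment: test compound, 48 hours, 5 concentrations. Analysis: linear interpolation between bracketing concentrations; unreached endpoints set to highest concentration. At the TGI there is no net growth.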

Key:
Experiment in all cases: DTP human tumour cell line panel, 48 h
786-0 renal = system: 786-0 renal
A498 renal = system: A498 renal
A549 NSCLC = system: A549 NSCLC
CAKI-1 renal = system: CAKI-1 renal
CCRF-CEM leukemia = system: CCRF-CEM leukemia
COLO 205 colon = system: COLO 205 colon
DLD-1 colon = system: DLD-1 colon
DMS 114 small cell lung = system: DMS 114 small cell lung
DMS 273 small cell lung = system: DMS 273 small cell lung
EKVX NSCLC = system: EKVX NSCLC
HCC-2998 colon = system: HCC-2998 colon
HCT-116 colon = system: HCT-116 colon
HCT-15 colon = system: HCT-15 colon
HL-60(TB) leukemia = system: HL-60(TB) leukemia
HOP-18 NSCLC = system: HOP-18 NSCLC
HOP-62 NSCLC = system: HOP-62 NSCLC
HOP-92 NSCLC = system: HOP-92 NSCLC
IGROV1 ovarian = system: IGROV1 ovarian
K-562 leukemia = system: K-562 leukemia
KM12 colon = system: KM12 colon
KM20L2 colon = system: KM20L2 colon
LOX IMVI melanoma = system: LOX IMVI melanoma
LXFL 529 NSCLC = system: LXFL 529 NSCLC
M14 melanoma = system: M14 melanoma
M19-MEL melanoma = system: M19-MEL melanoma
MALME-3M melanoma = system: MALME-3M melanoma
MOLT-4 leukemia = system: MOLT-4 leukemia
NCI-H226 lung = system: NCI-H226 lung
NCI-H23 lung = system: NCI-H23 lung
NCI-H460 lung = system: NCI-H460 lung
NCI-H522 lung = system: NCI-H522 lung
OVCAR-3 ovarian = system: OVCAR-3 ovarian
OVCAR-4 ovarian = system: OVCAR-4 ovarian
OVCAR-5 ovarian = system: OVCAR-5 ovarian
OVCAR-8 ovarian = system: OVCAR-8 ovarian
RPMI-8226 leukemia = system: RPMI-8226 leukemia
RXF 393 renal = system: RXF 393 renal
SF-268 CNS = system: SF-268 CNS
SF-295 CNS = system: SF-295 CNS
SF-539 CNS = system: SF-539 CNS
SK-MEL-2 melanoma = system: SK-MEL-2 melanoma
SK-MEL-5 melanoma = system: SK-MEL-5 melanoma
SK-OV-3 ovarian = system: SK-OV-3 ovarian
SN12C renal = system: SN12C renal
SNB-19 CNS = system: SNB-19 CNS
SNB-75 CNS = system: SNB-75 CNS
SNB-78 CNS = system: SNB-78 CNS
SR leukemia = system: SR leukemia
SW-620 colon = system: SW-620 colon
TK-10 renal = system: TK-10 renal
U251 CNS = system: U251 CNS
UACC-257 melanoma = system: UACC-257 melanoma
UACC-62 melanoma = system: UACC-62 melanoma
UO-31 renal = system: UO-31 renal
XF 498 CNS = system: XF 498 CNS

Measured: TGI

O=C1c2c(c(-c3ccccc3)c(-c3ccccc3)c(-c3ccccc3)c2-c2ccccc2)C(=O)N1c1cccc(Br)c1
> 100 µM: 786-0 renal | A498 renal | A549 NSCLC | CAKI-1 renal | CCRF-CEM leukemia | COLO 205 colon | DLD-1 colon | DMS 114 small cell lung | DMS 273 small cell lung | EKVX NSCLC | HCC-2998 colon | HCT-116 colon | HCT-15 colon | HL-60(TB) leukemia | HOP-18 NSCLC | HOP-62 NSCLC | HOP-92 NSCLC | IGROV1 ovarian | K-562 leukemia | KM12 colon | KM20L2 colon | LOX IMVI melanoma | LXFL 529 NSCLC | M14 melanoma | M19-MEL melanoma | MALME-3M melanoma | MOLT-4 leukemia | NCI-H226 lung | NCI-H23 lung | NCI-H460 lung | NCI-H522 lung | OVCAR-3 ovarian | OVCAR-4 ovarian | OVCAR-5 ovarian | OVCAR-8 ovarian | RPMI-8226 leukemia | RXF 393 renal | SF-268 CNS | SF-295 CNS | SF-539 CNS | SK-MEL-2 melanoma | SK-MEL-5 melanoma | SK-OV-3 ovarian | SN12C renal | SNB-19 CNS | SNB-75 CNS | SNB-78 CNS | SR leukemia | SW-620 colon | TK-10 renal | U251 CNS | UACC-257 melanoma | UACC-62 melanoma | UO-31 renal | XF 498 CNS
